In US11382892B2, “Method for administration” (Hoffmann-La Roche Inc., priority 2012, dated 2022):

System: human osteosarcoma cancer xenograft model SJSA1
Assay: Survival / increase in life span in SJSA1 xenograft
Assay type: in vivo, mice
Conditions: for 50% Treatment Days (median survival): vehicle 26 days
Description: For survival assessment, the percent of increased life space (ILS) was calculated as: 100×[(median survival day of treated group−median survival day of control group)/median survival day of control group]. Median survival was determined utilizing Kaplan Meier survival analysis. Survival in treated groups was statistically compared with the vehicle group and survival comparisons were done between groups using the log-rank test (Graph Pad Prism, La Jolla, Calif., USA). Differences between groups were considered significant when the probability value (p) was ≤0:05.
All dose levels are reported as the actual dosage of Compound A rather than including drug plus polymer.
Female athymic Crl:NU-Foxn1nu mice (10/group), obtained from Charles River Laboratories (Wilmington, Del.) were utilized when they were approximately 10-12 weeks of age and weighed 23-25 g. The health of the mice was assessed daily by gross observation and analyses of blood samples taken from sentinel animals housed on shared shelf racks. All animals were allowed to acclimate and recover from any shipping-related stress for a minimum of 72 hours prior to experimental use. Autoclaved water and irradiated food (5058-ms Pico Lab mouse chow, Purina Mills, Richmond, Ind.) were provided ad libitum, and the animals were maintained on a 12 hour light and dark cycle. Cages, bedding and water bottles were autoclaved before use and changed weekly. All animal experiments were conducted in accordance with the Guide for the Care and Use of Laboratory Animals, local regulations, and protocols approved by the Roche Animal Care and Use Committee in an AAALAC accredited facility.
SJSA cells (ATCC) were maintained in RPMI 1640+10% (v/v) heat-inactivated FBS+i % (v/v) […] L-glutamine. Each mouse received 5×10^6 cells in a 1:1 mixture of phosphate buffered saline and Matrigel in a total volume of 0.2 ml. Cells were implanted subcutaneously in the right flank using a 1 cc syringe and a 26 gauge needle.
Treatment duration was 2-4 weeks. Dates of tumor implant, treatment initiation (study start date), and termination of treatment (study end date) can be found in Table 6 below. The starting tumor volume for this study was about 220 mm^3. Tumor volumes and animal body weights were measured three times per week and animals were monitored for clinical signs daily.

[1] = 100 mg/kg QD po 2 on/12 off x 2
[2] = 200 mg/kg (two 100 mg/kg doses 8 hr apart) 1x/wk po

In the case of COc1cc(C(=O)O)ccc1NC(=O)[C@@H]1N[C@@H](CC(C)(C)C)[C@](C#N)(c2ccc(Cl)cc2F)[C@H]1c1cccc(Cl)c1F [Compound A, 4-{[(2R,3S,4R,5S)-4-(4-Chloro-2-fluoro-phenyl)-3-(3-chloro-2-fluoro-phenyl)-4-cyano-5-(2,2-dimethyl-propyl)-pyrrolidine-2-carbonyl]-amino}-3-methoxy-benzoic acid], the “% Increased Life Span (% ILS)” value (7.5 mg/kg QD po) is reported as 23%, the “50% Treatment Days (median survival)” value (7.5 mg/kg QD po) is reported as 32 days and the “% Increased Life Span (% ILS)” value (15 mg/kg QD po) is reported as 62%. For the same molecule, the “50% Treatment Days (median survival)” value (15 mg/kg QD po) was 42 days, the “% Increased Life Span (% ILS)” value (20 mg/kg QD po 20 on/8 off) was 77% and the “50% Treatment Days (median survival)” value (20 mg/kg QD po 20 on/8 off) was 46 days. The “% Increased Life Span (% ILS)” value (30 mg/kg QD po) was 127%, the “50% Treatment Days (median survival)” value (30 mg/kg QD po) was 59 days and the “% Increased Life Span (% ILS)” value (50 mg/kg 1x/wk po) was 23%. For the same molecule, the “50% Treatment Days (median survival)” value (50 mg/kg 1x/wk po) was 32 days, the “% Increased Life Span (% ILS)” value (50 mg/kg QD po 2 on/5 off x 4) was 119% and the “50% Treatment Days (median survival)” value (50 mg/kg QD po 2 on/5 off x 4) was 57 days. For the same molecule, the “% Increased Life Span (% ILS)” value (50 mg/kg QD po 4 on/10 off x 2) was 112%, the “50% Treatment Days (median survival)” value (50 mg/kg QD po 4 on/10 off x 2) was 55 days and the “% Increased Life Span (% ILS)” value (80 mg/kg QD po 5 on/23 off) was 127%. For the same molecule, the “50% Treatment Days (median survival)” value (80 mg/kg QD po 5 on/23 off) was 59 days, the “% Increased Life Span (% ILS)” value (100 mg/kg 1x/wk po) was 77% and the “50% Treatment Days (median survival)” value (100 mg/kg 1x/wk po) was 46 days. The “% Increased Life Span (% ILS)” value (100 mg/kg QD po 2 on/5 off x 4) was 188%, the “50% Treatment Days (median survival)” value (100 mg/kg QD po 2 on/5 off x 4) was 75 days and the “% Increased Life Span (% ILS)” value [1] was 119%. For the same molecule, the “50% Treatment Days (median survival)” value [1] was 57 days, the “% Increased Life Span (% ILS)” value [2] was 162% and the “50% Treatment Days (median survival)” value [2] was 68 days.
